# Assay results taken from patent US20220249401A1, “DIETARY SUPPLEMENT FORMULATED BASED ON ALL-TRANS FORM OF MENAQUINONE-7” (NUTRIOMICS LIMITED, priority 2021, published 2022).
# Test system: MGP
# Assay: MGP gene expression in chondrocyte cells treated with trans form of MK7
# Assay type: cell-based
# Details: Chondrocyte cells treated with 0.01% (w/w) trans form of MK7; mRNA encoding MGP, relative to control conditions
# Method: Example 2—The role of the trans form of MK7 in expression of MGP was measured as compared to control samples. Chondrocyte cells were treated with 0.01% (w/w) trans form of vitamin MK7 and results were reported as fold change in gene expression relative to control conditions.
# MGP expression was elevated by 21% in the presence of trans form of MK7 as compared to the control samples as can be concluded from FIG. 2. […] MGP gene expression found to actively be regulated in the presence of trans form of MK7.
smiles,measurement,value
"CC(C)=CCC/C(C)=C/CC/C(C)=C/CC/C(C)=C/CC/C(C)=C/CC/C(C)=C/CC/C(C)=C/CC1=C(C)C(=O)c2ccccc2C1=O [trans form of MK7, all-trans form of Menaquinone-7]",MGP expression elevated as compared to the control samples,21%
